From patent publication US20140010806A1, “Treatment of Ocular Diseases” (priority 2012, published 2014)

Molecular target: NF-κB
Assay: NF-κB-bla THP-1 β-lactamase reporter assay, activation of NF-κB by TNFα or LPS
Format: cell-based, human
Conditions: positive control assays; 1 hour β-lactamase substrate incubation
Source text: Reduction of inflammation. Inhibition of NF-κB by 17α-ethynylandrost-5-ene-3β,7β,17β-triol in vitro. A number of compounds were used to inhibit activation of NF-κB by TNF-α or LPS in human cells in vitro. Activation of NF-κB increases expression of a number of genes that mediate inflammation. This protocol used human THP-1 cells, which are human mononuclear blood cells with a monocyte phenotype. The cell line, referred to as NF-κB-bla THP-1, contained a β-lactamase reporter gene under the control of the NF-κB response element (Invitrogen, CellSensor™, product No. K1176). In this cell line, the β-lactamase reporter gene is stably integrated in the THP-1 cells. This cell line was used to detect agonists or antagonists of the NF-κB signaling pathway. These NF-κB-bla THP-1 cells respond to the presence of tumor necrosis factor alpha (TNFα) or bacterial lipopolysaccharide (LPS) by increased expression of the β-lactamase reporter gene. The level of β-lactamase enzyme activity was measured by fluorescence resonance energy transfer ratiometric detection. […]
The NF-κB-bla THP-1 cells were maintained by passaging or feeding as needed. […] The cells were plated at 20,000 cells/well in a 384-well Black-wall, clear bottom assay plates (Costar #3712-TC low fluorescence background plates) approximately 24 hours before adding either TNFα at 10 ng/mL or LPS at 0.2 ng/mL to activate NF-κB. […]

EC50 concentration for TNFα, activation of NF-κB: 0.20 ng/mL
Substance: TNFα
